# In ChEMBL document CHEMBL5390237, “Discovery of Selective Histone Deacetylase 1 and 2 Inhibitors: Screening of a Focused Library Constructed by Click Chemistry, Kinetic Binding Analysis, and Biological Evaluation” (J Med Chem, 2023):
# Target: Histone deacetylase 2 (Homo sapiens, UniProt Q92769)
# Experiment: Inhibition of full-length recombinant human C-terminal GST tagged HDAC2 expressed in Sf9 insect cells using aminoluciferin peptide substrate at 100 nM preincubated for 3 hrs followed by substrate addition and measured after 30 mins by HDAC-Glo I/II chemiluminescence assay
# Conditions: time 3.5 hrs
# Sequence of Histone deacetylase 2 (Q92769 whole entry): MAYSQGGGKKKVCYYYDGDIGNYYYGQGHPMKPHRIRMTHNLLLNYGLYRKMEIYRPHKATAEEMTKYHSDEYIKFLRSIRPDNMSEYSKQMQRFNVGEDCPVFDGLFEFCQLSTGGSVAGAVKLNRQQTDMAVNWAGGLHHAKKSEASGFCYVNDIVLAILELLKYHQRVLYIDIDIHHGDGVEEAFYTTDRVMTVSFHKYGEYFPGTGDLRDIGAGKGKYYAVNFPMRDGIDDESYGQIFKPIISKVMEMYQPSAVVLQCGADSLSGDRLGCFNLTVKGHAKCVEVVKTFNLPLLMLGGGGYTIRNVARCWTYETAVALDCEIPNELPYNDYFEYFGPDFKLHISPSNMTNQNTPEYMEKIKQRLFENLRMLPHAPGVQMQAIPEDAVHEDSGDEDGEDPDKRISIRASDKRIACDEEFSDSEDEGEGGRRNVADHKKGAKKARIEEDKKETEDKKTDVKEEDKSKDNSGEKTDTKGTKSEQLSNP
row,SMILES,inhibition
1,Cc1cccc(CCn2cc(-c3ccc(C(=O)Nc4cc(-c5cccs5)ccc4N)s3)nn2)c1,20%
2,Nc1ccc(-c2cccs2)cc1NC(=O)c1ccc(-c2cn(CCc3ccccn3)nn2)s1,71%
3,Nc1ccc(-c2cccs2)cc1NC(=O)c1ccc(-c2cn(CCC34CC5CC(CC(C5)C3)C4)nn2)s1,0%
4,Cc1cccc(C)c1NC(=O)Cn1cc(-c2cccc(C(=O)Nc3cc(-c4cccs4)ccc3N)c2)nn1,8%
5,Nc1ccc(-c2ccsc2)cc1NC(=O)CCc1cn(-c2ccccc2-c2ccccc2)nn1,2%
6,Nc1ccc(-c2cccs2)cc1NC(=O)c1cccc(-c2cn(CCC3CCCCC3)nn2)c1,0%
7,Nc1ccc(-c2ccc(F)cc2)cc1NC(=O)CCc1cn(CCc2c[nH]c3ccccc23)nn1,30%
8,Nc1ccc(-c2ccsc2)cc1NC(=O)c1cn(Cc2ccc(C(=O)O)cc2)nn1,49%
9,Nc1ccc(-c2cccnc2)cc1NC(=O)CCc1cn(CCc2cccc([N+](=O)[O-])c2)nn1,15%
10,Nc1ccc(-c2ccsc2)cc1NC(=O)CCc1cn(-c2ccc([N+](=O)[O-])cc2)nn1,0%
11,Cc1cccc(C)c1NC(=O)Cn1cc(-c2ccc(C(=O)Nc3cc(-c4cccs4)ccc3N)cc2)nn1,52%
12,Nc1ccc(-c2cccs2)cc1NC(=O)c1cccc(-c2cn(-c3cccc4ccccc34)nn2)c1,0%
13,Nc1ccc(-c2cccs2)cc1NC(=O)c1cn(Cc2cccc(-c3ccccc3)c2)nn1,6%
14,Nc1ccc(-c2cccs2)cc1NC(=O)c1ccc(-c2cn(CCc3ccc(Cl)cc3)nn2)s1,3%
15,Nc1ccc(-n2cc(-c3cccc(C(=O)Nc4cc(-c5cccs5)ccc4N)c3)nn2)cc1,30%
16,COc1ccc(CCn2cc(CCC(=O)Nc3cc(-c4ccc(F)cc4)ccc3N)nn2)cc1,34%
17,Cc1ccc(-n2cc(CCC(=O)Nc3cc(-c4ccccc4)ccc3N)nn2)cc1C,0%
18,Nc1ccc(-c2cccs2)cc1NC(=O)c1cccc(-c2cn(CCc3ccccn3)nn2)c1,33%
19,Nc1ccc(-c2ccsc2)cc1NC(=O)CCc1cn(-c2cccc3ccccc23)nn1,0%
20,Nc1ccc(-c2ccccc2)cc1NC(=O)c1cn(CCCCCc2ccccc2)nn1,0%
21,Nc1ccc(-c2ccsc2)cc1NC(=O)c1cn(CCc2ccc([N+](=O)[O-])cc2)nn1,0%
22,Nc1ccc(-c2cccnc2)cc1NC(=O)CCc1cn(CCc2ccccc2Cl)nn1,9%
23,Nc1ccc(-c2ccccc2)cc1NC(=O)CCc1cn(CCc2ccccc2)nn1,24%
24,Cc1ccc(CCn2cc(CCC(=O)Nc3cc(-c4ccc(F)cc4)ccc3N)nn2)cc1,25%

row,SMILES,inhibition
1,Nc1ccc(-c2ccccc2)cc1NC(=O)c1cn(CCc2ccc(-c3ccccc3)cc2)nn1,0%
2,Nc1ccc(-c2ccc(F)cc2)cc1NC(=O)CCc1cn(-c2ccc([N+](=O)[O-])cc2)nn1,7%
3,COc1ccc(CCn2cc(CCC(=O)Nc3cc(-c4cccnc4)ccc3N)nn2)cc1,21%
4,Nc1ccc(-c2cccs2)cc1NC(=O)c1ccc(-c2cn(Cc3cccc(-c4ccccc4)c3)nn2)cc1,0%
5,Nc1ccc(-c2ccccc2)cc1NC(=O)CCc1cn(Cc2cc3ccccc3s2)nn1,0%
6,Nc1ccc(-c2ccc(F)cc2)cc1NC(=O)c1cn(-c2cccc3ccccc23)nn1,4%
7,Nc1ccc(-c2cccs2)cc1NC(=O)c1ccc(-c2cn(CCN3CCOCC3)nn2)cc1,75%
8,COc1ccccc1CCn1cc(CCC(=O)Nc2cc(-c3ccccc3)ccc2N)nn1,10%
9,Nc1ccc(-c2ccsc2)cc1NC(=O)c1cn(Cc2ccc(Oc3ccccc3)cc2)nn1,0%
10,Nc1ccc(-c2ccccc2)cc1NC(=O)CCc1cn(CCN2CCc3ccccc3C2)nn1,11%
11,Nc1ccc(-c2cccnc2)cc1NC(=O)CCc1cn(CCc2cccc(F)c2)nn1,13%
12,Nc1ccc(-c2ccc(F)cc2)cc1NC(=O)CCc1cn(CCc2ccccc2[N+](=O)[O-])nn1,20%
13,Nc1ccc(-c2cccnc2)cc1NC(=O)CCc1cn(CCc2cccc3ccccc23)nn1,13%
14,Nc1ccc(-c2ccc(F)cc2)cc1NC(=O)CCc1cn(CC2CCCCC2)nn1,1%
15,Nc1ccc(-n2cc(CCC(=O)Nc3cc(-c4cccnc4)ccc3N)nn2)cc1,5%
16,Nc1ccc(-c2cccs2)cc1NC(=O)c1cn(Cc2ccc(C(=O)O)cc2)nn1,32%
17,Nc1ccc(-c2ccsc2)cc1NC(=O)CCc1cn(CC23CC4CC(CC(C4)C2)C3)nn1,0%
18,Nc1ccc(-c2ccccc2)cc1NC(=O)CCc1cn(Cc2ccc3ccccc3c2)nn1,11%
19,Nc1ccc(-c2cccs2)cc1NC(=O)c1ccc(-c2cn(CCc3cccc(F)c3)nn2)cc1,22%
20,Nc1ccc(-c2ccc(F)cc2)cc1NC(=O)CCc1cn(CCc2cccc([N+](=O)[O-])c2)nn1,41%
21,Nc1ccc(-c2ccccc2)cc1NC(=O)c1cn(CCc2ccccc2Cl)nn1,0%
22,Nc1ccc(-c2ccsc2)cc1NC(=O)c1cn(CCc2ccccc2)nn1,17%
23,Nc1ccc(-c2ccccc2)cc1NC(=O)CCc1cn(C[S+]([O-])c2ccccc2)nn1 (centres undefined),8%
24,Nc1ccc(-c2ccsc2)cc1NC(=O)c1cn(Cc2ccc3ccccc3c2)nn1,3%

row,SMILES,inhibition
1,Nc1ccc(-c2cccs2)cc1NC(=O)c1cccc(-c2cn(Cc3ccc4ccccc4n3)nn2)c1,4%
2,Nc1ccc(-c2ccccc2)cc1NC(=O)CCc1cn(CCc2ccsc2)nn1,0%
3,COc1ccc(CCn2cc(CCC(=O)Nc3cc(-c4ccsc4)ccc3N)nn2)cc1,29%
4,Nc1ccc(-c2ccc(F)cc2)cc1NC(=O)c1cn(Cc2cccc(C(=O)O)c2)nn1,0%
5,Nc1ccc(-c2cccnc2)cc1NC(=O)CCc1cn(-c2ccc([N+](=O)[O-])cc2)nn1,2%
6,Nc1ccc(-c2ccccc2)cc1NC(=O)c1cn(CCc2cccc([N+](=O)[O-])c2)nn1,0%
7,Nc1ccc(-c2cccnc2)cc1NC(=O)CCc1cn(Cc2nc3ccccc3[nH]2)nn1,11%
8,Nc1ccc(-n2cc(CCC(=O)Nc3cc(-c4ccc(F)cc4)ccc3N)nn2)cc1,21%
9,Nc1ccc(-c2ccccc2)cc1NC(=O)c1cn(-c2ccccc2-c2ccccc2)nn1,0%
10,Nc1ccc(-c2ccsc2)cc1NC(=O)c1cn(CCc2cccc(F)c2)nn1,0%
11,Nc1ccc(-c2cccs2)cc1NC(=O)c1ccc(-c2cn(CCc3ccccc3)nn2)cc1,65%
12,Nc1ccc(-c2cccs2)cc1NC(=O)c1cn(Cc2ccc(OC(F)(F)F)cc2)nn1,14%
13,Nc1ccc(-c2ccc(F)cc2)cc1NC(=O)c1cn(Cc2cccc3ccccc23)nn1,8%
14,Nc1ccc(-c2ccc(F)cc2)cc1NC(=O)CCc1cn(CCCCCCC(=O)O)nn1,6%
15,Nc1ccc(-c2cccnc2)cc1NC(=O)CCc1cn(CCCCCC(=O)O)nn1,0%
16,Nc1ccc(-c2ccccc2)cc1NC(=O)CCc1cn(CCc2ccc(C(=O)O)cc2)nn1,33%
17,Nc1ccc(-c2ccsc2)cc1NC(=O)CCc1cn(-c2ccc(I)cc2)nn1,0%
18,Nc1ccc(-c2cccnc2)cc1NC(=O)CCc1cn(Cc2ccc(-c3ccccc3)cc2)nn1,8%
19,Cc1cccc(CCn2cc(CCC(=O)Nc3cc(-c4ccccc4)ccc3N)nn2)c1,27%
20,Nc1ccc(-c2cccs2)cc1NC(=O)c1ccc(-c2cn(-c3ccc(O)cc3)nn2)s1,20%
21,Nc1ccc(-c2ccsc2)cc1NC(=O)c1cn(CS(=O)(=O)c2ccccc2)nn1,14%
22,Nc1ccc(-c2cccs2)cc1NC(=O)c1ccc(-c2cn(Cc3ccc(Oc4ccccc4)cc3)nn2)cc1,0%
23,Nc1ccc(-c2ccccc2)cc1NC(=O)CCc1cn(-c2ccc([N+](=O)[O-])cc2)nn1,0%
24,Nc1ccc(-c2ccccc2)cc1NC(=O)c1cn(CCc2cccc(Cl)c2)nn1,0%

row,SMILES,inhibition
1,Nc1ccc(-c2ccccc2)cc1NC(=O)c1cn(Cc2nc3ccccc3[nH]2)nn1,11%
2,Nc1ccc(-c2cccs2)cc1NC(=O)CCc1cn(Cc2cccc3ccccc23)nn1,9%
3,Nc1ccc(-c2ccc(F)cc2)cc1NC(=O)CCc1cn(C[S+]([O-])c2ccccc2)nn1 (centres undefined),17%
4,Cc1ccc(-n2cc(C(=O)Nc3cc(-c4cccs4)ccc3N)nn2)cc1C,0%
5,Nc1ccc(-c2ccc(F)cc2)cc1NC(=O)CCc1cn(/C=C/c2ccccc2)nn1,3%
6,Nc1ccc(-c2ccsc2)cc1NC(=O)CCc1cn(Cc2cccc(C(=O)O)c2)nn1,0%
7,Nc1ccc(-c2ccsc2)cc1NC(=O)CCc1cn(CC(=O)c2ccccc2)nn1,12%
8,Nc1ccc(-c2cccs2)cc1NC(=O)c1cccc(-c2cn(Cc3ccc(C(=O)O)cc3)nn2)c1,55%
9,Nc1ccc(-c2ccc(F)cc2)cc1NC(=O)c1cn(CCCCCCC(=O)O)nn1,23%
10,Nc1ccc(-c2ccccc2)cc1NC(=O)c1cn(Cc2ccc(C(=O)O)cc2)nn1,27%
11,Nc1ccc(-c2cccs2)cc1NC(=O)c1cn(CCN2CCOCC2)nn1,0%
12,Nc1ccc(-c2cccs2)cc1NC(=O)c1cccc(-c2cn(Cc3ccc4ccccc4c3)nn2)c1,6%
13,Nc1ccc(-c2cccs2)cc1NC(=O)c1ccc(-c2cn(CC3CCCCC3)nn2)cc1,0%
14,Nc1ccc(-c2cccs2)cc1NC(=O)c1ccc(-c2cn(CCc3ccccc3Cl)nn2)cc1,5%
15,Cc1cccc(CCn2cc(C(=O)Nc3cc(-c4ccccc4)ccc3N)nn2)c1,1%
16,Nc1ccc(-c2ccc(F)cc2)cc1NC(=O)c1cn(CCC2CCCCC2)nn1,5%
17,Nc1ccc(-c2ccsc2)cc1NC(=O)CCc1cn(CCc2cccc(F)c2)nn1,21%
18,Nc1ccc(-c2cccs2)cc1NC(=O)c1cccc(-c2cn(CC34CC5CC(CC(C5)C3)C4)nn2)c1,0%
19,Nc1ccc(-c2ccc(F)cc2)cc1NC(=O)CCc1cn(CCc2cccc(F)c2)nn1,15%
20,Nc1ccc(-c2cccs2)cc1NC(=O)c1ccc(-c2cn(-c3ccc(I)cc3)nn2)s1,0%
21,Nc1ccc(-c2ccccc2)cc1NC(=O)CCc1cn(-c2ccc(I)cc2)nn1,0%
22,Nc1ccc(-c2ccccc2)cc1NC(=O)CCc1cn(-c2ccc(O)cc2)nn1,3%
